Measured values taken from patent US11629135B2 (JUBILANT PRODEL LLC, priority 2017, dated 2023).

Biological target: T1, PD-1/PD-L1 interaction (Homo sapiens, UniProt Q9NZQ7)
T1 construct: Tag1 or Tag2 (undisclosed kit tag); purchased CisBio 63ADK000CPAPEG
Assay: PD-1/PD-L1 Homogenous Time-Resolved Fluorescence (HTRF) binding assay
Conditions: Biochemical PD1/PD-L1 inhibition
Method: PD-L1 Enzyme Assay: Homogenous Time-Resolved Fluorescence (HTRF) Binding Assay
All binding studies were performed using PD-1/PD-L1 Binding Assay Kit from CisBio (Catalog #63ADK000CPAPEG), according to the manufacturer's protocol. The interaction between Tag1-PD-1 and […] was detected by anti-Tag1-Eu^3+ (HTRF donor) and anti-Tag2-XL665 (HTRF acceptor). When the donor and acceptor antibodies were brought to close proximity due to PD-1 and PD-L1 binding, excitation of the donor antibody triggered fluorescent resonance energy transfer (FRET) towards the acceptor antibody, which in turn emitted specifically at 665 nm. This specific signal is positively proportional to PD-1/PD-L1 interaction. The compounds blocking PD-1/PD-L1 interaction will cause a reduction in HTRF signal. The necessary reagents were mixed in the following order: 2 μl compounds (or diluents buffer), 4 μl PD-L1 protein, 4 μl PD-1 protein. After an incubation of 15 minutes, 5 μl of anti-Tag1-Eu^3+ and 5 μl of anti-Tag2-XL665 were added. The plate was sealed and incubated at RT for 1 h. The fluorescence emission was read at two different wavelengths (665 nm and 620 nm) on a BMG PheraStar® multiplate reader. Results were calculated from the 665 nm and 620 nm fluorescence signal and expressed in HTRF ratio=(665 nm/620 nm)×[…].

T1 sequence (Q9NZQ7 19-238 limits assumed): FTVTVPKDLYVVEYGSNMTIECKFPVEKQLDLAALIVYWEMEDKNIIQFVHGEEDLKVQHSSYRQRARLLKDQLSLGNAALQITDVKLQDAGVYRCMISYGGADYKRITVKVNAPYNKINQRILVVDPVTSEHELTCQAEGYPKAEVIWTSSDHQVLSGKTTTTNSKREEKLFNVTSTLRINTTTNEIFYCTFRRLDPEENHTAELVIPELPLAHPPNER

Row | IC50 | SMILES
1 | > 500 nM | COC(=O)C1COCCN1Cc1c(OC)nc(OCc2cccc(-c3ccccc3)c2C)nc1OC (stereo not shown) [Compound 37, Methyl 4-((4,6-dimethoxy-2-((2-methyl-[1,1′-biphenyl]-3-yl)methoxy)pyrimidin-5-yl)methyl) morpholine-3-carboxylate]
2 | > 500 nM | COc1nc(OCc2cccc(-c3ccccc3)c2C)ncc1CN1CCN(C(C)=O)C[C@H]1C(=O)O [Compound 49, (S)-4-acetyl-1-((4-methoxy-2-((2-methyl-[1,1′-biphenyl]-3-yl)methoxy)pyrimidin-5-yl)methyl)piperazine-2-carboxylic acid]
3 | 100 to 500 nM | CCOc1nc(OCc2cccc(-c3ccccc3)c2C)ncc1CNC(CC(N)=O)C(=O)O (stereo not shown) [Compound 29, ((4-ethoxy-2-((2-methyl-[1,1′-biphenyl]-3-yl)methoxy)pyrimidin-5-yl)methyl)asparagine]
4 | 100 to 500 nM | COc1nc(OCc2cccc(-c3cccc(F)c3)c2C)ncc1CN1CCCC[C@H]1C(=O)O [Compound 17, (S)-1-((2-((3′-fluoro-2-methyl-[1,1′-biphenyl]-3-yl)methoxy)-4-methoxypyrimidin-5-yl)methyl)piperidine-2-carboxylic acid]
5 | < 100 nM | COc1nc(OCc2cccc(-c3ccccc3)c2C)nc(OC)c1CN1CCOCC1C(=O)O (stereo not shown) [Compound 38, 4-((4,6-dimethoxy-2-((2-methyl-[1,1′-biphenyl]-3-yl)methoxy)pyrimidin-5-yl)methyl)morpholine-3-carboxylic acid]
6 | > 500 nM | COc1nc(OCc2cccc(-c3ccccc3)c2C)ncc1CN1CCCC2(CCNC2=O)C1 (stereo not shown) [Compound 52, 7-((4-methoxy-2-((2-methyl-[1,1′-biphenyl]-3-yl)methoxy)pyrimidin-5-yl)methyl)-2,7-diazaspiro[4.5]decan-1-one]
7 | 100 to 500 nM | CCOc1nc(OCc2cccc(-c3ccccc3)c2C)ncc1CN1CCC1C(=O)O (stereo not shown) [Compound 31, 1-((4-ethoxy-2-((2-methyl-[1,1′-biphenyl]-3-yl)methoxy)pyrimidin-5-yl)methyl)azetidine-2-carboxylic acid]
8 | > 500 nM | COc1nc(OCc2cccc(-c3ccccc3)c2C)ncc1CN1CCC[C@@H]2C[C@@]21C(=O)O (racemic) [Compound 48]
9 | 100 to 500 nM | COc1nc(OCc2cccc(-c3ccccc3)c2C)ncc1CN1CCCC[C@H]1CC(=O)O [Compound 60, (S)-2-(1-((4-methoxy-2-((2-methyl-[1,1′-biphenyl]-3-yl)methoxy)pyrimidin-5-yl)methyl)piperidin-2-yl) acetic acid]
10 | < 100 nM | COc1nc(OCc2cccc(-c3ccccc3)c2C)nc(OC)c1CN1CC2(CC2)C[C@H]1C(=O)O [Compound 46, (S)-5-((4,6-dimethoxy-2-((2-methyl-[1,1′-biphenyl]-3-yl)methoxy)pyrimidin-5-yl)methyl)-5-azaspiro[2.4]heptane-6-carboxylic acid]
11 | 100 to 500 nM | COc1nc(OCc2cccc(-c3ccccc3)c2C)nc(OC)c1CN1CCC[C@@H]2C[C@@]21C(=O)O (single isomer, unassigned) [Compound 5]
12 | > 500 nM | CCOc1nc(OCc2cccc(-c3ccccc3)c2C)ncc1CNCCNC(C)=O [Compound 21, N-(2-(((4-ethoxy-2-((2-methyl-[1,1′-biphenyl]-3-yl)methoxy)pyrimidin-5-yl)methyl)amino)ethyl)acetamide]
13 | < 100 nM | COc1nc(OCc2cccc(-c3ccccc3)c2C)nc(OC)c1CN1CCOC[C@H]1C(=O)O [Compound 43, (S)-4-((4,6-dimethoxy-2-((2-methyl-[1,1′-biphenyl]-3-yl)methoxy)pyrimidin-5-yl)methyl)morpholine-3-carboxylic acid]
14 | > 500 nM | Cc1c(COc2ncc(CN3C[C@H](O)C[C@H]3C(=O)O)c(OCc3cncc(C#N)c3)n2)cccc1-c1ccccc1 [Compound 59, (2S,4R)-1-((4-((5-cyanopyridin-3-yl)methoxy)-2-((2-methyl-[1,1′-biphenyl]-3-yl)methoxy)pyrimidin-5-yl)methyl)-4-hydroxypyrrolidine-2-carboxylic acid]
15 | 100 to 500 nM | CCOc1nc(OCc2cccc(-c3ccccc3)c2C)nc(OCC)c1CN1CCCC[C@H]1C(=O)O [Compound 40]
16 | > 500 nM | COc1ccc(-c2cccc(COc3nc(OC)c(CNCCNC(C)=O)c(OC)n3)c2C)cc1OC [Compound 57, N-(2-(((2-((3′,4′-dimethoxy-2-methyl-[1,1′-biphenyl]-3-yl)methoxy)-4,6-dimethoxypyrimidin-5-yl)methyl)amino)ethyl)acetamide]
17 | > 500 nM | COc1nc(OCc2cccc(-c3ccccc3)c2C)ncc1CN1CCNC[C@H]1C(=O)O [Compound 50, (S)-1-((4-methoxy-2-((2-methyl-[1,1′-biphenyl]-3-yl)methoxy)pyrimidin-5-yl)methyl)piperazine-2-carboxylic acid]
18 | > 500 nM | COc1ccc(-c2cccc(COc3nc(OC)c(CN4C[C@H](O)C[C@H]4C(=O)O)c(OC)n3)c2C)cc1OC [Compound 58]
19 | 100 to 500 nM | COc1nc(OCc2cccc(-c3cccc(F)c3)c2C)ncc1CNCCNC(C)=O [Compound 18, N-(2-(((2-((3′-fluoro-2-methyl-[1,1′-biphenyl]-3-yl)methoxy)-4-methoxypyrimidin-5-yl)methyl)amino)ethyl)acetamide]
20 | < 100 nM | COc1nc(OCc2cccc(-c3ccccc3)c2C)ncc1CN1CCCC[C@H]1C(=O)O [Compound 7, (S)-1-((4-methoxy-2-((2-methyl-[1,1′-biphenyl]-3-yl)methoxy)pyrimidin-5-yl)methyl)piperidine-2-carboxylic acid]
21 | > 500 nM | CC(=O)NCCNCc1cnc(OCc2cccc(-c3ccccc3)c2C)nc1OCc1ccccc1 [Compound 32, N-(2-(((4-(benzyloxy)-2-((2-methyl-[1,1′-biphenyl]-3-yl)methoxy)pyrimidin-5-yl)methyl)amino)ethyl)acetamide]
22 | < 100 nM | CCOc1nc(OCc2cccc(-c3ccccc3)c2C)ncc1CNC(CO)(CO)CO [Compound 25, 2-(((4-ethoxy-2-((2-methyl-[1,1′-biphenyl]-3-yl)methoxy)pyrimidin-5-yl)methyl)amino)-2-(hydroxymethyl)propane-1,3-diol]
23 | < 100 nM | COc1nc(OCc2cccc(-c3ccc4c(c3)OCCO4)c2C)nc(OC)c1CN1C[C@H](O)C[C@H]1C(=O)O [Compound 11, (2S,4R)-1-((2-((3-(2,3-dihydrobenzo[b][1,4]dioxin-6-yl)-2-methylbenzyl)oxy)-4,6-dimethoxypyrimidin-5-yl)methyl)-4-hydroxypyrrolidine-2-carboxylic acid]
24 | < 100 nM | COc1nc(OCc2cccc(-c3ccc4c(c3)OCCO4)c2C)nc(OC)c1CNCCNC(C)=O [Compound 56, N-(2-(((2-((3-(2,3-dihydrobenzo[b][1,4]dioxin-6-yl)-2-methylbenzyl)oxy)-4,6-dimethoxypyrimidin-5-yl)methyl)amino)ethyl)acetamide]
25 | 100 to 500 nM | CCOc1nc(OCc2cccc(-c3ccccc3)c2C)nc(OCC)c1CN1C[C@H](O)C[C@H]1C(=O)O [Compound 39, (2S,4R)-1-((4,6-diethoxy-2-((2-methyl-[1,1′-biphenyl]-3-yl)methoxy)pyrimidin-5-yl)methyl)-4-hydroxypyrrolidine-2-carboxylic acid]
26 | > 500 nM | Cc1c(COc2ncc(CN3CCCC[C@H]3C(=O)O)c(OCc3cncc(C#N)c3)n2)cccc1-c1ccccc1 [Compound 12, (S)-1-((4-((5-cyanopyridin-3-yl)methoxy)-2-((2-methyl-[1,1′-biphenyl]-3-yl)methoxy)pyrimidin-5-yl)methyl)piperidine-2-carboxylic acid]
27 | > 500 nM | COc1nc(OCc2cccc(-c3ccccc3F)c2C)ncc1CNCCNC(C)=O [Compound 20, N-(2-(((2-((2′-fluoro-2-methyl-[1,1′-biphenyl]-3-yl)methoxy)-4-methoxypyrimidin-5-yl)methyl)amino)ethyl)acetamide]
28 | < 100 nM | COc1nc(OCc2cccc(-c3ccccc3)c2C)nc(OC)c1CN1CCCC2(CCNC2=O)C1 (stereo not shown) [Compound 47, 7-((4,6-dimethoxy-2-((2-methyl-[1,1′-biphenyl]-3-yl)methoxy)pyrimidin-5-yl)methyl)-2,7-diazaspiro[4.5]decan-1-one]
